Source: patent US9339032B2, “Heterocyclic compounds as pesticides” (Bayer Intellectual Property GmbH, priority 2010, dated 2016)
Where two headings read alike, the source gives them in different places.

Assays:
[1] = Determination of the log P values (formic acid method) by reverse-phase HPLC; assay type: physicochemical; conditions: reverse-phase HPLC column (C 18), reverse-phase column (C 18), acidic range (pH 3.4), 55° C.
Description: 1) Description of Method for Determination of the log P Values (Formic Acid Method)
The log P values given in the table were determined in accordance with EEC Directive 79/831 Annex V.A8 by HPLC (High Performance Liquid Chromatography) using a reverse-phase column (C 18). Temperature: 55° C.
Eluents for determination in the acidic range (pH 3.4):
Eluent A: acetonitrile+1 ml of formic acid/liter. Eluent B: water+0.9 ml of formic acid/liter.
Gradient: from 10% eluent A/90% eluent B to 95% eluent A/5% eluent B in 4.25 min.
The calibration was effected with unbranched alkan-2-ones (having 3 to 16 carbon atoms) with known log P values (log P values determined on the basis of the retention times by linear interpolation between two successive alkanones). The lambda max values were determined in the maxima of the chromatographic signals using the UV spectra from 200 nm to 400 nm.

[2] = system: green peach aphid (Myzus persicae); assay: Myzus test (spray treatment); assay type: in vivo; conditions: 500 g/ha, spray on Chinese cabbage leaf discs, after 6 days; 100% = all aphids killed
Description: Myzus Test (Spray Treatment) Solvent: 78 parts by weight of acetone • • 1.5 parts by weight of dimethylformamide Emulsifier: 0.5 part by weight of alkylaryl polyglycol ether To prepare an appropriate active ingredient preparation, 1 part by weight of active ingredient is mixed with the stated amounts of solvent and emulsifier, and the concentrate is diluted with emulsifier-containing water to the desired concentration. Discs of Chinese cabbage (Brassica pekinensis) infested by all stages of the green peach aphid (Myzus persicae) are sprayed with an active ingredient preparation of the desired concentration. After 6 days, the efficacy in % is determined. 100% means that all of the aphids have been killed; 0% means that none of the aphids have been killed.

[3] = system: Boophilus microplus; assay: Boophilus microplus test (injection); assay type: in vivo; conditions: 20 μg/animal, injection into the abdomen, after 7 days; 100% = none of the ticks has laid fertile eggs
Description: The NMR spectra were • a) determined with a Bruker Avance 400 fitted with a flow probe head (volume 60 μl). The solvent used was CD3CN or d6-DMSO, with tetramethylsilane (0.00 ppm) used as a reference. • b) determined with a Bruker Avance II 600. The solvent used was CD3CN or d6-DMSO, with tetramethylsilane (0.00 ppm) used as a reference. The splitting of the signals was described as follows: s (singlet), d (doublet), t (triplet), q (quartet), quin (quintet), m (multiplet). Boophilus Microplus Test (Injection)
Solvent: dimethyl sulphoxide
To prepare an appropriate active ingredient formulation, 10 mg of active ingredient are mixed with 0.5 ml of solvent and the concentrate is diluted with solvent to the desired concentration. The active ingredient solution is injected into the abdomen (Boophilus microplus), and the animals are transferred into dishes and stored in a climate-controlled room. The activity is assessed by laying of fertile eggs.
After 7 days, the efficacy in % is determined. 100% means that none of the ticks has laid any fertile eggs.

Compound `CS(=O)(=O)NC(=O)c1cnn(-c2cccnc2)c1` [Compound 16] has a chromatographic logP ([1]; table, read-out: logP (HCOOH)) of 0.41.

In the case of `Cc1nn(-c2cccnc2)cc1C(=O)NS(=O)(=O)c1ccccc1` [Compound 6], the “efficacy in % (aphids killed)” value [2] is reported as 100% and the chromatographic logP ([1]; table, read-out: logP (HCOOH)) is reported as 1.71.

`O=C(NS(=O)(=O)C1CC1)c1cnn(-c2cccnc2)c1` [Compound 11] showed a chromatographic logP ([1]; table, read-out: logP (HCOOH)) of 0.83.

With `Cc1nn(-c2cccnc2)cc1C(=O)NS(C)(=O)=O` [Compound 13] the chromatographic logP ([1]; table, read-out: logP (HCOOH)) was 0.81.

For `Cc1nc(-c2cccnc2)sc1S(=O)(=O)N(C)C` [Compound 3], the “efficacy in % (aphids killed)” value [2] was 100% and the chromatographic logP ([1]; read-out: log P (HCOOH)) was 1.86.

Work on `CCOC(=O)c1cnn(-c2cccnc2)c1` [Ethyl 1-(pyridin-3-yl)-1H-pyrazole-4-carboxylate] yielded a chromatographic logP ([1]; read-out: log P (HCOOH)) of 1.55.

With `CN(C)S(=O)(=O)NC(=O)c1cnn(-c2cncc(F)c2)c1` [Compound 7] the “efficacy in % (aphids killed)” value [2] was 100% and the chromatographic logP ([1]; table, read-out: logP (HCOOH)) was 1.42.

Compound `COCCNS(=O)(=O)c1sc(-c2cccnc2)nc1C` [Compound 14] has a chromatographic logP ([1]; table, read-out: logP (HCOOH)) of 1.51.

In the case of `O=C(NS(=O)(=O)c1ccccc1)c1cnn(-c2cccnc2)c1` [Compound 9], the chromatographic logP ([1]; table, read-out: logP (HCOOH)) is reported as 1.39.

In the case of `O=C(NS(=O)(=O)C1CC1)c1cnn(-c2cncc(F)c2)c1` [Compound 8], the “efficacy in % (aphids killed)” value [2] is reported as 90% and the chromatographic logP ([1]; table, read-out: logP (HCOOH)) is reported as 1.28.

`Cc1nc(-c2cncc(F)c2)sc1C(=O)NS(C)(=O)=O` [Compound 20] gave a chromatographic logP ([1]; table, read-out: logP (HCOOH)) of 1.08.

With `O=C(NS(=O)(=O)c1ccccc1)c1cnn(-c2cncc(F)c2)c1` [Compound 17] the chromatographic logP ([1]; table, read-out: logP (HCOOH)) was 1.81.

With `Cc1nc(-c2cccnc2)sc1NC(=O)CC(F)(F)F` [Compound 1, 3,3,3-Trifluoro-N-[4-methyl-2-(pyridin-3-yl)-1,3-thiazol-5-yl]propanamide] the “efficacy in % (aphids killed)” value [2] was 80%, the “efficacy in % (laying of fertile eggs)” value [3] was 100% and the chromatographic logP ([1]; read-out: log P (HCOOH)) was 1.47.

`CCS(=O)(=O)NC(=O)c1cnn(-c2cccnc2)c1` [Compound 19] gave a chromatographic logP ([1]; table, read-out: logP (HCOOH)) of 0.69.

In the case of `Cc1nc(-c2cccnc2)sc1S(=O)(=O)NCc1ncccn1` [Compound 10], the chromatographic logP ([1]; table, read-out: logP (HCOOH)) is reported as 1.35.

For `Cc1nc(-c2cccnc2)sc1NC(=O)Cc1ncccn1` [Compound 2, N-[4-Methyl-2-(pyridin-3-yl)-1,3-thiazol-5-yl]-2-(pyrimidin-2-yl)acetamide], the “efficacy in % (aphids killed)” value [2] was 100% and the chromatographic logP ([1]; read-out: log P (HCOOH)) was 0.74.

In the case of `O=S(=O)(Nc1cnn(-c2cccnc2)c1)C(F)F` [Compound 5, 1,1-Difluoro-N-[1-(pyridin-3-yl)-1H-pyrazol-4-yl]methanesulphonamide], the chromatographic logP ([1]; read-out: log P (HCOOH)) is reported as 1.01.

In the case of `CN(C)S(=O)(=O)NC(=O)c1cnn(-c2cccnc2)c1` [Compound 4, N-(Dimethylsulphamoyl)-1-(pyridin-3-yl)-1H-pyrazole-4-carboxamide], the “efficacy in % (aphids killed)” value [2] is reported as 90% and the chromatographic logP ([1]; read-out: log P (HCOOH)) is reported as 1.03.

`O=C(NS(=O)(=O)C(F)(F)F)c1cnn(-c2cccnc2)c1` [Compound 15] showed a chromatographic logP ([1]; table, read-out: logP (HCOOH)) of 0.67.

`CCS(=O)(=O)NC(=O)c1cnn(-c2cncc(F)c2)c1` [Compound 21] gave a chromatographic logP ([1]; table, read-out: logP (HCOOH)) of 1.24.

`Cc1nc(-c2cccnc2)sc1C(=O)NS(C)(=O)=O` [Compound 12] showed a chromatographic logP ([1]; table, read-out: logP (HCOOH)) of 0.54.

In the case of `CS(=O)(=O)NC(=O)c1cnn(-c2cncc(F)c2)c1` [Compound 18], the chromatographic logP ([1]; table, read-out: logP (HCOOH)) is reported as 0.9.
